In US20250136558A1, “PYRAZINE COMPOUNDS AS IRREVERSIBLE INHIBITORS OF FLT3” (BIOMEA FUSION, INC., priority 2021, published 2025) one finds IC50 data, which are given here for 19 compounds.

Each structure is given as a SMILES string.

Holding throughout (assay type): cell-based
One test concerns MV-4-11. Briefly: Proliferation inhibition (CellTiter-Glo) in MV-4-11 cells. The settings on record: Homo sapiens, MV4-11, 96 h, MV-4-11 AML cells, homozygous FLT3-ITD, IC50 (4 days). The essentials:
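MV-4-11 human AML cells (homozygous FLT3-ITD) grown in RPMI-1640 with 10% heat-inactivated FBS and 1% Pen-Strep were seeded at about 10,000 cells per 200 μL in 96 well plates. Two hours later, compounds were dispensed at eight concentrations in duplicate. Viability was measured by CellTiter-Glo luminescence, and IC50 values came from four-parameter logistic non-linear regression against untreated cells (0.2% DMSO).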
For orientation: In ATP-based viability assays light output follows the ATP content of the culture.

A further test relates to K-562. In words: Proliferation inhibition (CellTiter-Glo) in K-562 cells. Conditions: Homo sapiens, K562, 96 h, K-562 CML cells, no FLT3 mutations, IC50 (4 days). The essentials:
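The CML line […] (ATCC: CRL-3343) was cultured in RPMI-1640 with 10% heat-inactivated FBS and 1% Pen-Strep at 37° C. Cells were seeded at about 10,000 per 200 μL in 96-well plates, and test compound was dispensed 2 hours later at eight concentrations in duplicate. Viability was measured as ATP luminescence with CellTiter-Glo. Untreated cells (0.2% DMSO) defined 100% proliferation, and IC50 values came from four-parameter logistic fits.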

For a further test, the system named is MOLM-13. Briefly: Proliferation inhibition (CellTiter-Glo) in MOLM-13 cells. Conditions: Homo sapiens, 96 h, MOLM-13 AML cells, heterozygous FLT3-ITD, IC50 (4 days). The essentials: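 MOLM-13 human AML cells, heterozygous for FLT3-ITD, were grown in RPMI-1640 with 10% heat-inactivated FBS and 1% Pen-Strep. About 10,000 cells in 200 μL were seeded per well of 96-well plates. After 2 hours, compounds from DMSO stocks were dispensed at eight concentrations in duplicate, with 0.2% DMSO as the untreated control. Viability was read as CellTiter-Glo ATP luminescence, and IC50 was obtained from a four-parameter logistic fit.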

With `CC#CC(=O)N(C)[C@@H](C)C(=O)NCCCOc1cc(F)cc(Nc2nc(NC3CCOCC3)c(CC)nc2C(N)=O)c1` [Compound 128, (S)-6-ethyl-3-((3-fluoro-5-(3-(2-(N-methylbut-2-ynamido)propanamido)propoxy)phenyl)amino)-5-((tetrahydro-2H-pyran-4-yl)amino)pyrazine-2-carboxamide], the IC50 (usually the concentration that inhibits the measured activity by half) was 0.001 to 0.01 µM with MV-4-11, over 0.5 µM with K-562 and 0.001 to 0.01 µM with MOLM-13.

Take `CCc1cnc(Nc2cccc(OCCCNC(=O)[C@H](C)N(C)C(=O)/C=C/CN(C)C)c2)c(C(N)=O)n1` [Compound 121, (S,E)-3-((3-(3-(2-(4-(dimethylamino)-N-methylbut-2-enamido)propanamido)propoxy)phenyl)amino)-6-ethylpyrazine-2-carboxamide]: the IC50 in the test on MV-4-11 is 0.01 to 0.1 µM; in the test with K-562, over 0.5 µM; in the test on MOLM-13 it was 0.1 to 0.5 µM.

As to `C=CC(=O)NCCNc1cc(Nc2nc(NC3CCOCC3)c(CC)nc2C(N)=O)ccn1` [Compound 20, 3-((2-((2-Acrylamidoethyl)amino)pyridin-4-yl)amino)-6-ethyl-5-((tetrahydro-2H-pyran-4-yl)amino)pyrazine-2-carboxamide], the half-inhibitory concentration (IC50) is 0.01 to 0.1 µM in the test with MV-4-11, over 0.5 µM in the test on K-562 and 0.1 to 0.5 µM in the test with MOLM-13.

On to `CCc1nc(C(N)=O)c(Nc2cc(F)cc(O[C@@H](C)CNC(=O)[C@H](C)N(C)C(=O)/C=C/CN(C)C)c2)nc1N(C)C` [Compound 153, 5-(dimethylamino)-3-((3-(((S)-1-((S)-2-((E)-4-(dimethylamino)-N-methylbut-2-enamido)propanamido)propan-2-yl)oxy)-5-fluorophenyl)amino)-6-ethylpyrazine-2-carboxamide], for which the IC50 in the test with MV-4-11 was 0.001 to 0.01 µM; in the test with K-562 it was over 0.5 µM; with MOLM-13, 0.01 to 0.1 µM.

With `CC#CC(=O)N(C)[C@@H](C)C(=O)NCCc1cccc(Nc2nc(C)c(C)nc2C(N)=O)c1` [Compound 212, (S)-5,6-dimethyl-3-((3-(2-(2-(N-methylbut-2-ynamido)propanamido)ethyl)phenyl)amino)pyrazine-2-carboxamide], the half-inhibitory concentration (IC50) with MV-4-11, in the test with K-562 and with MOLM-13 was over 0.5 µM throughout.

In the case of `CCc1nc(C(N)=O)c(Nc2cc(F)cc(OCCCNC(=O)[C@H](C)N(C)C(=O)/C=C/CN(C)C)c2)nc1NC1CCOCC1` [Compound 129, (S,E)-3-((3-(3-(2-(4-(Dimethylamino)-N-methylbut-2-enamido)propanamido)propoxy)-5-fluorophenyl)amino)-6-ethyl-5-((tetrahydro-2H-pyran-4-yl)amino)pyrazine-2-carboxamide], the IC50 with MV-4-11 is under 0.001 µM; in the test on K-562, over 0.5 µM; in the test on MOLM-13 it was under 0.001 µM.

In the case of `C=CC(=O)N(C)[C@@H](C)C(=O)NCCOc1cccc(Nc2nc(NC3CCOCC3)c(CC)nc2C(N)=O)c1` [Compound 38, 6-ethyl-3-[3-[2-[[(2S)-2-[methyl(prop-2-enoyl)amino]propanoyl]amino]ethoxy]anilino]-5-(tetrahydropyran-4-ylamino)pyrazine-2-carboxamide], the IC50 was 0.001 to 0.01 µM in the test on MV-4-11, over 0.5 µM in the test on K-562 and 0.01 to 0.1 µM with MOLM-13.

For the compound `CCc1nc(C(N)=O)c(Nc2cccc(OCCCNC(=O)[C@H](C)N(C)C(=O)/C=C/CN(C)C)c2)nc1N1CCCC1` [Compound 142, (S,E)-3-((3-(3-(2-(4-(dimethylamino)-N-methylbut-2-enamido)propanamido)propoxy)phenyl)amino)-6-ethyl-5-(pyrrolidin-1-yl)pyrazine-2-carboxamide], the IC50 in the test on MV-4-11 was 0.001 to 0.01 µM; in the test with K-562, over 0.5 µM; in the test on MOLM-13 it was 0.001 to 0.01 µM.

`CC#CC(=O)N(C)[C@@H](C)C(=O)NCC#Cc1cc(Nc2nc(NC3CCOCC3)c(CC)nc2C(N)=O)cc(OC)c1` [Compound 108, 3-[3-[3-[[(2S)-2-[but-2-ynoyl(methyl)amino]propanoyl]amino]prop-1-ynyl]-5-methoxy-anilino]-6-ethyl-5-(tetrahydropyran-4-ylamino)pyrazine-2-carboxamide]: the figures for the IC50 with MV-4-11, in the test on K-562 and in the test with MOLM-13 were 0.001 to 0.01 µM, over 0.5 µM and 0.001 to 0.01 µM, respectively.

For the compound `CCc1nc(C(N)=O)c(Nc2cccc(OCCCNC(=O)[C@H](C)N(C)C(=O)/C=C/CN(C)C)c2)nc1N(CC)CC` [Compound 141, (S,E)-5-(diethylamino)-3-((3-(3-(2-(4-(dimethylamino)-N-methylbut-2-enamido)propanamido)propoxy)phenyl)amino)-6-ethylpyrazine-2-carboxamide], the IC50 in the test with MV-4-11 is under 0.001 µM; with K-562, over 0.5 µM; in the test on MOLM-13, under 0.001 µM.

On to `CCc1nc(C(N)=O)c(Nc2cccc(OCCCNC(=O)[C@H](C)N(C)C/C=C/C(=O)N(C)C)c2)nc1NC1CCOCC1` [Compound 140, (S,E)-3-((3-(3-(2-((4-(dimethylamino)-4-oxobut-2-en-1-yl)(methyl)amino)propanamido)propoxy)phenyl)amino)-6-ethyl-5-((tetrahydro-2H-pyran-4-yl)amino)pyrazine-2-carboxamide], for which the figures for the IC50 in the test with MV-4-11, in the test with K-562 and in the test on MOLM-13 were 0.01 to 0.1 µM, over 0.5 µM and 0.01 to 0.1 µM, respectively.

For the compound `C=CS(=O)(=O)N(C)[C@@H](C)C(=O)NCCNc1cc(Nc2nc(NC3CCOCC3)c(CC)nc2C(N)=O)ccn1` [Compound 41, 6-ethyl-3-[[2-[2-[[(2S)-2-[methyl(vinylsulfonyl)amino]propanoyl]amino]ethylamino]-4-pyridyl]amino]-5-(tetrahydropyran-4-ylamino)pyrazine-2-carboxamide], the IC50 was 0.01 to 0.1 µM in the test on MV-4-11, over 0.5 µM in the test on K-562 and 0.01 to 0.1 µM in the test with MOLM-13.

For `CC#CC(=O)NCCCOc1cccc(Nc2nc(NC3CCOCC3)c(CC)nc2C(N)=O)c1` [Compound 8, 3-((3-(3-(But-2-ynamido)propoxy)phenyl)amino)-6-ethyl-5-((tetrahydro-2H-pyran-4-yl)amino)pyrazine-2-carboxamide], the IC50 is over 0.5 µM with MV-4-11, over 0.5 µM in the test with K-562 and 0.1 to 0.5 µM in the test with MOLM-13.

For `C=CS(=O)(=O)NCCCCOc1cccc(Nc2nc(NC3CCOCC3)c(CC)nc2C(N)=O)c1` [Compound 2, 6-Ethyl-5-((tetrahydro-2H-pyran-4-yl)amino)-3-((3-(4-(vinylsulfonamido)butoxy)phenyl)amino)pyrazine-2-carboxamide], the values for the IC50 in the test with MV-4-11, with K-562 and in the test with MOLM-13 were 0.1 to 0.5 µM, over 0.5 µM and 0.1 to 0.5 µM, respectively.

Turning to `CC#CC(=O)NCCC#Cc1cccc(Nc2nc(NC3CCOCC3)c(CC)nc2C(N)=O)c1` [Compound 16, 3-((3-(4-(But-2-ynamido)but-1-yn-1-yl)phenyl)amino)-6-ethyl-5-((tetrahydro-2H-pyran-4-yl)amino)pyrazine-2-carboxamide], the values for the half-inhibitory concentration (IC50) with MV-4-11, in the test on K-562 and in the test on MOLM-13 were 0.1 to 0.5 µM, over 0.5 µM and 0.1 to 0.5 µM, respectively.

Regarding `C[C@@H](C(=O)NCCCOc1cccc(Nc2nc(NC3CCOCC3)cnc2C(N)=O)c1)N(C)C(=O)/C=C/CN(C)C` [Compound 130, (S,E)-3-((3-(3-(2-(4-(dimethylamino)-N-methylbut-2-enamido)propanamido)propoxy)phenyl)amino)-5-((tetrahydro-2H-pyran-4-yl)amino)pyrazine-2-carboxamide], the IC50 was 0.001 to 0.01 µM with MV-4-11, over 0.5 µM in the test on K-562 and 0.01 to 0.1 µM in the test on MOLM-13.

For the compound `Cc1nc(C(N)=O)c(Nc2cccc(OCCCNC(=O)[C@H](C)N(C)C(=O)/C=C/CN(C)C)c2)nc1NC1CCOCC1` [Compound 132, (S,E)-3-((3-(3-(2-(4-(dimethylamino)-N-methylbut-2-enamido)propanamido)propoxy)phenyl)amino)-6-methyl-5-((tetrahydro-2H-pyran-4-yl)amino)pyrazine-2-carboxamide], the IC50 is under 0.001 µM in the test with MV-4-11, over 0.5 µM with K-562 and 0.001 to 0.01 µM in the test with MOLM-13.

For the compound `CCc1nc(C(N)=O)c(Nc2cccc(OCCCNC(=O)[C@H](C)N(C)C(=O)/C=C/CN3CCC3)c2)nc1NC1CCOCC1` [Compound 134, (S,E)-3-((3-(3-(2-(4-(azetidin-1-yl)-N-methylbut-2-enamido)propanamido)propoxy)phenyl)amino)-6-ethyl-5-((tetrahydro-2H-pyran-4-yl)amino)pyrazine-2-carboxamide], the results for the IC50 in the test on MV-4-11, with K-562 and in the test on MOLM-13 were under 0.001 µM, over 0.5 µM and 0.001 to 0.01 µM, respectively.

As to `CCc1nc(C(N)=O)c(Nc2cccc(OC(C)CNC(=O)[C@H](C)N(C)C(=O)/C=C/CN(C)C)c2)nc1NC1CCOCC1` (stereo partly drawn) [Compound 115A, 3-[3-[2-[[(2S)-2-[[(E)-4-(dimethylamino)but-2-enoyl]-methyl-amino]propanoyl]amino]-1-methyl-ethoxy]anilino]-6-ethyl-5-(tetrahydropyran-4-ylamino)pyrazine-2-carboxamide], the figures for the IC50 with MV-4-11, in the test with K-562 and in the test on MOLM-13 were under 0.001 µM, over 0.5 µM and 0.001 to 0.01 µM, respectively.
